Assay results taken from patent EP2057185B1, “POLYMYXIN DERIVATIVES AND USES THEREOF” (Northern Antibiotics Oy, priority 2006, dated 2008).
Bridge positions count the residues as written; N and C are the ends. Square brackets hold non-standard residues; d marks the D form. Peptide text beside a SMILES is read from it. * marks the point of attachment. Octanoyl = CCCCCCCC(=O)*; Dab = NCC[C@H](N)C(=O)O; Abu = CC[C@H](N)C(=O)O

Columns and labels:
K. oxytoca ATCC 13182 = experiment: Growth inhibition around wells on LB agar plates; type: cell-based, Klebsiella oxytoca; settings: growth inhibition area around well
Description: (§1) From an overnight-grown culture of IH3080 on LB agar, a suspension of approx. 10^8 cells/ml was prepared in 0.9% NaCl. Aliquots of this suspension were then pipetted on the agar plates and the plates were gently shaken to spread the suspension evenly on the entire surface of the plate. Thereafter, the unabsorbed part of the suspension was removed by using a Pasteur pipette. After the surface had dried, small wells (diameter, 2 mm) were drilled on the plates (five wells per plate) by using a sterile sharp-edged narrow metal tube, single-use pipette tip, and vacuum suction. Samples (4 µl and 10 µl) of the peptide solution in 0.9% NaCl (at concentrations of 1 µg/ml and 0.1 µg/ml) were then pipetted to the wells and the sample fluids were allowed to absorb. Controls included 0.9% NaCl solution without the compound to be tested. The plates were then incubated for 18 h at 37°C whereafter the diameters of growth inhibition zones around each well were measured; the diameter of the well itself was […]. Finally, the diameters were converted to surface areas of growth inhibition (in square mm).
(§2) The susceptibility of eleven Gram-negative bacterial strains (nine different species) to NAB734 and polymyxin B was compared by using the susceptibility determination method described in Example 2. […]

C. freundii ATCC8090 = experiment: Growth inhibition around wells on LB agar plates; type: cell-based, Citrobacter freundii; settings: growth inhibition area around well
Description: as §1, §2

S. marcescens ATCC8100 [1] = experiment: Growth inhibition around wells on LB agar plates; type: cell-based, Serratia marcescens; settings: growth inhibition area around well
Description: as §1, §2

A. baumannii ATCC 19606 = experiment: Growth inhibition around wells on LB plates containing rifampin (sensitization); type: cell-based, Acinetobacter baumannii; settings: well containing 4 µg
[2] = system: Ps. aeruginosa ATCC 27853; experiment: as above; type: cell-based, Pseudomonas aeruginosa; settings: well containing 4 µg
E. coli ATCC25922 = system: E. coli ATCC25922
Description: (§3) MICs were determined by using E-strips (Biodisk Ltd., Solna, Sweden) according to the manufacturer's instructions.
(§4) The strains originated from ATCC (11 strains), CCUG (11 strains), and NCTC (The National Collection of Type Cultures, Colindale, U.K.; 2 strains). Eight strains (the F-strains) were purchased from Mobidiag Ltd., Helsinki, Finland.

K. pneumoniae CCUG45421 = experiment: MIC by E-strips on Mueller-Hinton agar with or without NAB7061 (4 µg/ml); type: cell-based, Klebsiella pneumoniae
Description: as §3, §4

K. pneumoniae F136 = experiment: as above; type: cell-based, Klebsiella pneumoniae
Description: as §3, §4

K. pneumoniae F144 = experiment: as above; type: cell-based, Klebsiella pneumoniae
Description: as §3, §4

K. pneumoniae F145 = experiment: as above; type: cell-based, Klebsiella pneumoniae
Description: as §3, §4

E. cloacae F230 = experiment: as above; type: cell-based, Enterobacter cloacae
Description: as §3, §4

E. cloacae F232 = experiment: as above; type: cell-based, Enterobacter cloacae
Description: as §3, §4

S. marcescens ATCC8100 [3] = experiment: as above; type: cell-based, Serratia marcescens
Description: as §3, §4

P. mirabilis ATCC29906 = experiment: as above; type: cell-based, Proteus mirabilis
Description: as §3, §4

P. aeruginosa ATCC27853 = experiment: as above; type: cell-based, Pseudomonas aeruginosa
Description: as §3, §4

P. aeruginosa CCUG51971 = experiment: as above; type: cell-based, Pseudomonas aeruginosa
Description: as §3, §4

P. aeruginosa F58 = experiment: as above; type: cell-based, Pseudomonas aeruginosa
Description: as §3, §4

[4] = system: all strains (17) belonging to the group consisting of E. coli, K. oxytoca, E. cloacae, and C. freundii; experiment: E-strip MIC, summary over 17 strains of Example 8; type: cell-based
Description: as §3, §4

[5] = system: three strains of A. baumannii; experiment: E-strip MIC, summary over A. baumannii strains of Example 8; type: cell-based, Acinetobacter baumannii; settings: NAB7061 4 µg/ml
Description: as §3, §4

E. coli IH3080 (O18:K1) = experiment: Synergistic bactericidal activity with guinea pig serum (complement); type: cell-based, Escherichia coli; settings: none (PBS)

With Polymyxin B the “Antibacterial activity 4 µg” value (K. oxytoca ATCC 13182; 4 µg) was 79 square millimeters, the “Antibacterial activity 10 µg” value (K. oxytoca ATCC 13182; 10 µg) was 104 square millimeters and the “Antibacterial activity 4 µg” value (C. freundii ATCC8090; 4 µg) was 95 square millimeters. For the same compound, the “Antibacterial activity 10 µg” value (C. freundii ATCC8090; 10 µg) was 154 square millimeters, the “Antibacterial activity 4 µg” value (S. marcescens ATCC8100 [1]; 4 µg) was 0 square millimeters and the “Antibacterial activity 10 µg” value (S. marcescens ATCC8100 [1]; 10 µg) was 0 square millimeters.

CCCCCCCC(=O)N[C@H](C(=O)N[C@@H](CC)C(=O)N[C@H]1CCNC(=O)[C@H]([C@@H](C)O)NC(=O)[C@H](CCN)NC(=O)[C@H](CCN)NC(=O)[C@H](CC(C)C)NC(=O)[C@@H](Cc2ccccc2)NC(=O)[C@H](CCN)NC1=O)[C@@H](C)O [NAB 7061, OA-Thr-Abu-cy[Dab-Dab-DPhe-Leu-Dab-Dab-Thr-]] (Octanoyl-T[Abu][Dab][Dab][dF]L[Dab][Dab]T; lactam 3-C) was tested, and the “Antibacterial activity, rifampin 0” value (A. baumannii ATCC 19606; no rifampin (control)) was 0 square millimeters, the “Antibacterial activity, rifampin 0.1” value (A. baumannii ATCC 19606; rifampin 0.1 µg/ml) was 28 square millimeters and the “Antibacterial activity, rifampin 0.3” value (A. baumannii ATCC 19606; rifampin 0.3 µg/ml) was 50 square millimeters. For the same compound, the “Antibacterial activity, rifampin 0” value ([2]; no rifampin (control)) was 0 square millimeters, the “Antibacterial activity, rifampin 0.1” value ([2]; rifampin 0.1 µg/ml) was 0 square millimeters and the “Antibacterial activity, rifampin 0.3” value ([2]; rifampin 0.3 µg/ml) was 0 square millimeters. For the same compound, the “MIC (µg/ml) of clarithromycin in the presence of 4 µg/ml of NAB 7061” value (from here on “MIC (µg/ml) of clarithromycin”) (E. coli ATCC25922) was 0,094 - 0,125 µg/ml, the “MIC (µg/ml) of rifampin in the presence of 4 µg/ml of NAB 7061” value (“MIC (µg/ml) of rifampin” below) (E. coli ATCC25922) was 0,01 - 0,047 µg/ml and the “Sensitization factor to clarithromycin” value (E. coli ATCC25922; 4 µg/ml of NAB 7061) was […]. For the same compound, the “Sensitization factor to rifampin” value (E. coli ATCC25922; 4 µg/ml of NAB 7061) was […], the “MIC of NAB7061” value (E. coli ATCC25922; Mueller-Hinton agar) was […] and the “MIC (µg/ml) of clarithromycin” value (K. pneumoniae CCUG45421) was […]. For the same compound, the “MIC (µg/ml) of rifampin” value (K. pneumoniae CCUG45421) was […], the “Sensitization factor to clarithromycin” value (K. pneumoniae CCUG45421; 4 µg/ml of NAB 7061) was […] and the “Sensitization factor to rifampin” value (K. pneumoniae CCUG45421; 4 µg/ml of NAB 7061) was […]. For the same compound, the “MIC (µg/ml) of clarithromycin” value (K. pneumoniae F136) was […], the “MIC (µg/ml) of rifampin” value (K. pneumoniae F136) was […] and the “Sensitization factor to clarithromycin” value (K. pneumoniae F136; 4 µg/ml of NAB 7061) was […]. For the same compound, the “Sensitization factor to rifampin” value (K. pneumoniae F136; 4 µg/ml of NAB 7061) was […], the “MIC (µg/ml) of clarithromycin” value (K. pneumoniae F144) was […] and the “MIC (µg/ml) of rifampin” value (K. pneumoniae F144) was […]. The “Sensitization factor to clarithromycin” value (K. pneumoniae F144; 4 µg/ml of NAB 7061) was […], the “Sensitization factor to rifampin” value (K. pneumoniae F144; 4 µg/ml of NAB 7061) was […] and the “MIC (µg/ml) of clarithromycin” value (K. pneumoniae F145) was […]. The “MIC (µg/ml) of rifampin” value (K. pneumoniae F145) was […], the “Sensitization factor to clarithromycin” value (K. pneumoniae F145; 4 µg/ml of NAB 7061) was […] and the “Sensitization factor to rifampin” value (K. pneumoniae F145; 4 µg/ml of NAB 7061) was […]. The “MIC (µg/ml) of clarithromycin” value (E. cloacae F230) was […], the “MIC (µg/ml) of rifampin” value (E. cloacae F230) was […] and the “Sensitization factor to clarithromycin” value (E. cloacae F230; 4 µg/ml of NAB 7061) was […]. The “Sensitization factor to rifampin” value (E. cloacae F230; 4 µg/ml of NAB 7061) was […], the “MIC (µg/ml) of clarithromycin” value (E. cloacae F232) was […] and the “MIC (µg/ml) of rifampin” value (E. cloacae F232) was […]. The “Sensitization factor to clarithromycin” value (E. cloacae F232; 4 µg/ml of NAB 7061) was […], the “Sensitization factor to rifampin” value (E. cloacae F232; 4 µg/ml of NAB 7061) was […] and the “MIC (µg/ml) of clarithromycin” value (S. marcescens ATCC8100 [3]) was […]. The “MIC (µg/ml) of rifampin” value (S. marcescens ATCC8100 [3]) was […], the “Sensitization factor to clarithromycin” value (S. marcescens ATCC8100 [3]; 4 µg/ml of NAB 7061) was less than 2 and the “Sensitization factor to rifampin” value (S. marcescens ATCC8100 [3]; 4 µg/ml of NAB 7061) was less than 2. The “MIC (µg/ml) of clarithromycin” value (P. mirabilis ATCC29906) was […], the “MIC (µg/ml) of rifampin” value (P. mirabilis ATCC29906) was 1 to 6 µg/mL and the “Sensitization factor to clarithromycin” value (P. mirabilis ATCC29906; 4 µg/ml of NAB 7061) was less than 2. For the same compound, the “Sensitization factor to rifampin” value (P. mirabilis ATCC29906; 4 µg/ml of NAB 7061) was less than 2, the “MIC (µg/ml) of clarithromycin” value (P. aeruginosa ATCC27853) was […] and the “MIC (µg/ml) of rifampin” value (P. aeruginosa ATCC27853) was […]. The “Sensitization factor to clarithromycin” value (P. aeruginosa ATCC27853; 4 µg/ml of NAB 7061) was […], the “Sensitization factor to rifampin” value (P. aeruginosa ATCC27853; 4 µg/ml of NAB 7061) was […] and the “MIC (µg/ml) of clarithromycin” value (P. aeruginosa CCUG51971) was […]. The “MIC (µg/ml) of rifampin” value (P. aeruginosa CCUG51971) was greater than 32 µg/mL, the “Sensitization factor to clarithromycin” value (P. aeruginosa CCUG51971; 4 µg/ml of NAB 7061) was less than 2 and the “Sensitization factor to rifampin” value (P. aeruginosa CCUG51971; 4 µg/ml of NAB 7061) was less than 2. For the same compound, the “MIC (µg/ml) of clarithromycin” value (P. aeruginosa F58) was […], the “MIC (µg/ml) of rifampin” value (P. aeruginosa F58) was greater than 32 µg/mL and the “Sensitization factor to clarithromycin” value (P. aeruginosa F58; 4 µg/ml of NAB 7061) was less than 2. For the same compound, the “Sensitization factor to rifampin” value (P. aeruginosa F58; 4 µg/ml of NAB 7061) was less than 2, the “MIC of rifampin in the presence of NAB7061 (4 µg/ml)” value [4] was no more than 0.125 µg/mL and the “resulting MIC values to clarithromycin” value [5] was no more than 0.5 µg/mL. For the same compound, the “resulting MIC values to rifampin” value [5] was no more than 0.125 µg/mL, the “% survival after 2-hour treatment at 37°C” value (“% survival” for short) (E. coli IH3080 (O18:K1); NAB7061 1 µg/ml) was 97% and the “% survival” value (E. coli IH3080 (O18:K1); NAB7061 2 µg/ml) was 97%. The “% survival” value (E. coli IH3080 (O18:K1); NAB7061 4 µg/ml) was 79%.
